Assay results published in patent US20160213692A1, “ADVANCED METHOD OF TREATMENT AND MANAGEMENT OF CHRONIC HEPATITIS C INFECTION” (priority 2015, published 2016).
Marks after values point to notes of the source that are not given here.

Legend:
male Wistar rats [1] = test: Liver and renal function parameters in serum (Cobas e411) of treated rats
Description: (§1) A total of 80 male Wistar rats weighing 250-300 gm were used. All animals received humane care during the study protocol and during sacrifice.
(§2) The study duration was 5 weeks. Peg-INF-α-2a was prepared by diluting the content of a full syringe (180 μg/0.5 ml) in 9.5 ml sterile normal saline to prepare a final volume of 10 ml and the final concentration was 18 μg/ml. Each rat in the ‘P’, ‘PD’, ‘PR’ and ‘PRD’ groups received a weekly subcutaneous injection of 0.33 ml (6 μg/rat) for a total of 4 injections. The drug was prepared fresh on the day of use. […] Cholecalciferol ([…]) was prepared by adding 4 ml to 16 ml saline every morning to form a final concentration of 1000 IU/mL. Each rat in the ‘PD’, ‘PRD’, ‘PR’ and ‘VitD’ groups received 0.5 ml/day (500 IU/day) for the full study duration. Cholecalciferol, and its dose, was chosen over calcitriol, the hormonal form of vitamin D, to avoid the risk of soft tissue calcification (Salum et al, 2012). Following 4 injections, the rats were sacrificed in the fifth week at the time of the 5th injection would have been given. RBV and vitamin D3 were continued till the day before sacrifice.
(§3) All Rats were sacrificed on the same day under anesthesia using diethyl ether (Fisher Scientific UK Ltd, Loughborough, UK) a week after the last injection. 1 ml of blood was collected on EDTA for CBC and 3 ml of blood were collected in plane tube immediately after cutting the vena cava. Blood samples in plane tubes were centrifuged and the serum was stored in −20° C. for routine biochemistry and to measure serum concentrations of 25-OH vitamin D and EPO.
The quantitative measurement of serum liver enzymes (ALP, ALT and AST), total and indirect bilirubin, creatinine and urea was done using Cobas e411 (Roche Diagnostics International Ltd, Switzerland) according to the manufacturer protocol.

male Wistar rats [2] = test: Haematological profile / erythrocyte indices (Sysmex XS 500) of treated rats
Description: as §1, §2, §3
Whole blood samples (1 ml) collected on EDTA were processed on Sysmex XS 500 (Sysmex, IL, USA) for the measurement of hemoglobin concentrations, RBCs count, packed cell volume (PCV), mean corpuscular volume (MCV), mean corpuscular hemoglobin (MCH) an mean corpuscular hemoglobin concentration (MCHC).

human red cells = details: in vitro incubation; cited from earlier work
[3] = male, Wistar, rat, in vivo, 5 weeks
Description: as §1, §2
All Rats were sacrificed on the same day under anesthesia using diethyl ether (Fisher Scientific UK Ltd, Loughborough, UK) a week after the last injection. […]

rat red cells = details: in vitro incubation; cited from earlier work
monkey red cells = details: in vitro incubation; cited from earlier work
[4] = serum, male Wistar rats, 5 weeks
[5] = whole blood, male Wistar rats, 5 weeks

## C=C1CC[C@H](O)C/C1=C/C=C1\CCC[C@]2(C)[C@@H]([C@H](C)CCCC(C)C)CC[C@@H]12 [VitD group, cholecalciferol]
Male Wistar rats [1]; [4]
  ALT: 66.7 ± 4.2 U/L
  AST: 75.8 ± 4.2 U/L
  Creatinine: 0.2 ± 0.06 mg/dL
  Indirect Bilirubin: 0.15 ± 0.08 mg/dL
  Total Bilirubin: 0.51 ± 0.23 mg/dL
  Urea: 48.1 ± 5.2 mg/dL
Male Wistar rats [1]; serum, male Wistar rats, 5 weeks, mean ± spread
  ALP: 120.7 ± 12.3 IU/L
Male Wistar rats [2]; addition of cholecalciferol 500 IU/day to Peg-INF-α and/or RBV, rats, 5 weeks
  development of anemia: prevented the development of anemia
Male Wistar rats [2]; [5]
  Hb: 15.1 ± 0.7^d,f g/dL
  MCH: 17.4 ± 0.7 pg
  MCHC: 34 ± 0.8^c,e,g pg/dL
  MCV: 61.3 ± 1.8 fL
  PCV: 44.9 ± 1.8%
  RBCs: 8.9 ± 0.5^d,f ×10^6/μl

## NC(=O)c1ncn([C@@H]2O[C@H](CO)[C@@H](O)[C@H]2O)n1 [R group, ribavirin]
Male Wistar rats [1]; rat, in vivo
  ALP: 119 ± 9.9 IU/L
  ALT: 66.1 ± 2.6 U/L
  AST: 78.4 ± 3.2 U/L
  Creatinine: 0.22 ± 0.03 mg/dL
  Indirect Bilirubin: 0.17 ± 0.07 mg/dL
  Total Bilirubin: 0.49 ± 0.14 mg/dL
  Urea: 47.3 ± 5.8 mg/dL
Human red cells
  initial drug content retained by red cells: 45%
[3]
  25-OH Vitamin D: 42 ± 10^c,e ng/mL
Rat red cells
  initial drug content retained by red cells: 20%
Monkey red cells
  initial drug content retained by red cells: 77%
Male Wistar rats [2]; rat, in vivo
  MCH: 17.6 ± 0.7 pg
  MCHC: 34.4 ± 0.9^c,e pg/dL
  MCV: 64.3 ± 4.2 fL
  PCV: 42.1 ± 2.7%
  RBCs: 7.58 ± 0.7^a,b,c,e ×10^6/μl
Male Wistar rats [2]; [5]
  Hb: 13.1 ± 1^a,b,c,e g/dL
